# Test results from ChEMBL document CHEMBL1201862, “PubChem BioAssay data set” (2004).
# The source made the active and inactive calls.
# What was measured:
# [1] = target: T1, DNA repair and recombination protein RAD54-like (Homo sapiens, UniProt Q92698); assay: inhibitors of human RAD54 branch migration, confirmation, biochemical, fluorescence, cherry-picked samples, dose series (AID 651657); type: functional
# T1 sequence (Q92698 whole entry): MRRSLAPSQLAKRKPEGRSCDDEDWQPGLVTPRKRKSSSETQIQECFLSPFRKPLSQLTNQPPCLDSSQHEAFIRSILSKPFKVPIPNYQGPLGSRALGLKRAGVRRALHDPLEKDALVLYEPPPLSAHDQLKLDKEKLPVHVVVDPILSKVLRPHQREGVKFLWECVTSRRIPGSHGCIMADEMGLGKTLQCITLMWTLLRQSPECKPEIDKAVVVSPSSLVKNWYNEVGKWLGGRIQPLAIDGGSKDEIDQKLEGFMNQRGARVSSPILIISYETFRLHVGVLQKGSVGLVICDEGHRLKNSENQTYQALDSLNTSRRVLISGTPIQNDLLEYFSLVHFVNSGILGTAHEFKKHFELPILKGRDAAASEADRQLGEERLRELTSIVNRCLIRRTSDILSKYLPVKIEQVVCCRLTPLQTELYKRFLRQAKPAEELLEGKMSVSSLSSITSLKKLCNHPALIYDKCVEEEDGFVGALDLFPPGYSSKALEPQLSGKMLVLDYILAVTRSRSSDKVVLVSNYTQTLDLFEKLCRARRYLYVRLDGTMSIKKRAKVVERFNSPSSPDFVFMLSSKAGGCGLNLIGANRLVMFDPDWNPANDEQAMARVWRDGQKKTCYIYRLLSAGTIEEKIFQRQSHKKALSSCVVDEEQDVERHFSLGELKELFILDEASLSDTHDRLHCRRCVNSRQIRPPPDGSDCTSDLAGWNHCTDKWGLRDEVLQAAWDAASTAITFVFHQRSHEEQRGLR
# [2] = target: T2, Endoribonuclease toxin MazF (Escherichia coli K-12, UniProt P0AE70); assay: MazF toxin RNase activators, dose response, biochemical, fluorescence, single-stranded RNA substrate, uHTS hits (AID 588481); type: functional
# T2 sequence (P0AE70 whole entry): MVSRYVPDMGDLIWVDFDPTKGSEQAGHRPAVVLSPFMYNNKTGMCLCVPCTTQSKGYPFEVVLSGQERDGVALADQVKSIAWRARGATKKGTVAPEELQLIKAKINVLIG
# [3] = target: T2, Endoribonuclease toxin MazF; assay: fluorescent RNA oligo signal without MazF, dose response, counter-screen for MazEF activator project, biochemical, fluorescence, single-stranded RNase substrate (AID 588502); type: functional
# [4] = target: T3, Zinc finger protein mex-5 (Caenorhabditis elegans, UniProt Q9XUB2); assay: MEX-5/TCR-2 RNA interaction inhibitors, dose response, biochemical, C. elegans, fluorescence polarization (AID 1960)
# T3 sequence (Q9XUB2 whole entry): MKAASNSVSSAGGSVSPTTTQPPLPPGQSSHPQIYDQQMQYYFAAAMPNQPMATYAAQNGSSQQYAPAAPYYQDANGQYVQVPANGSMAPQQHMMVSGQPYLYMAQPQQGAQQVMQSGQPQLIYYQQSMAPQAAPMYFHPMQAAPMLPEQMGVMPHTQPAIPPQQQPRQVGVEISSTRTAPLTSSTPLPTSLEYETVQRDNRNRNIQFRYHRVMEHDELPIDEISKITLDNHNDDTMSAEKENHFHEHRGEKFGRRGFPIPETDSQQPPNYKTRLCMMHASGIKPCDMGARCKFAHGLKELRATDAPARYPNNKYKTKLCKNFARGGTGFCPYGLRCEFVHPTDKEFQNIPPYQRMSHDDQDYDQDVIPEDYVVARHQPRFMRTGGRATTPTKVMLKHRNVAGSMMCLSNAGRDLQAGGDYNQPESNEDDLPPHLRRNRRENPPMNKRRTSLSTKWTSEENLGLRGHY
# [5] = target: T4, RNA-binding protein pos-1 (Caenorhabditis elegans, UniProt G5EF15); assay: inhibitors of POS-1/mex-3 RNA binding, dose response, biochemical, fluorescence polarization (AID 1964);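 also: purified POS-1 fused to maltose binding protein made in E. coli; potency of compounds blocking POS-1 binding to fluorescent RNA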
# T4 sequence (G5EF15 whole entry): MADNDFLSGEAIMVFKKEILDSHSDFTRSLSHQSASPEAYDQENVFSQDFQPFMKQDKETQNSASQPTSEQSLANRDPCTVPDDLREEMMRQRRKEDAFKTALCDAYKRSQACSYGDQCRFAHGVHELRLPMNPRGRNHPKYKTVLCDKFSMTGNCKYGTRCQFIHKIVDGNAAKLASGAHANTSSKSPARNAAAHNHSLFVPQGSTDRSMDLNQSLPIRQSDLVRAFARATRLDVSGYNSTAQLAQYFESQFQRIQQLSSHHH
# [6] = microbe, parasite or virus in culture; type: functional; conditions: Mycobacterium tuberculosis
# [7] = target: T5, Replicative DNA helicase DnaB (Mycobacterium tuberculosis, UniProt P9WMR3); assay: DnaB intein splicing inhibitors, dose response, biochemical, cell-free fluorescence (AID 449749); type: functional
# T5 sequence (P9WMR3 whole entry): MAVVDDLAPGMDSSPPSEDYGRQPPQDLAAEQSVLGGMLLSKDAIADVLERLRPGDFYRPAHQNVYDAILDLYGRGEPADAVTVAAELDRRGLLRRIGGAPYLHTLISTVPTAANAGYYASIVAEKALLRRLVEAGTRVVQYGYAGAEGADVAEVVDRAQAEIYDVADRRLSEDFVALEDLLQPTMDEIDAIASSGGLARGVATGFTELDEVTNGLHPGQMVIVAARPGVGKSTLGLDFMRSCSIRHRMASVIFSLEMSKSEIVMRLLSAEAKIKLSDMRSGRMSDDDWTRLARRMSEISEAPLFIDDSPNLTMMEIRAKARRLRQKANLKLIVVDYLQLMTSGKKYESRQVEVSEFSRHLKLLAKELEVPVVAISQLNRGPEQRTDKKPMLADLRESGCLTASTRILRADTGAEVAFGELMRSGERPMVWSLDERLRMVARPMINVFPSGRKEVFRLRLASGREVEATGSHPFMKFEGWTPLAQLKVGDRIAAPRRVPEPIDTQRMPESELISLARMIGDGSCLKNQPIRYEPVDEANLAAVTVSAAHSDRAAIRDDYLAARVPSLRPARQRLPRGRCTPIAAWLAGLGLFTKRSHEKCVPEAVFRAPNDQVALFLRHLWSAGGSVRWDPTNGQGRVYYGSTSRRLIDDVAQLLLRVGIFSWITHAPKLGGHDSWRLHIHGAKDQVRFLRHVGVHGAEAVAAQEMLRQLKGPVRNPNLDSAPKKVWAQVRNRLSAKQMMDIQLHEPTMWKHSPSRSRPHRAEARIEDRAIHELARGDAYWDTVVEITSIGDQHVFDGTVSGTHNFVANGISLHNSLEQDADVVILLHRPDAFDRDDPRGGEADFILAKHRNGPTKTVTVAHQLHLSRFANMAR
# [8] = inhibitors of intracellular T. cruzi replication, confirmation, NIH3T3 host cells, beta-gal luminescence (AID 2044); type: functional, cell-based;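 also: intracellular parasites grown in NIH/3T3 mouse fibroblasts as host cells; luminescent beta-galactosidase reporter signal from transgenic T. cruzi replicating inside host cells; inhibitors lower the luminescence signal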
# [9] = cytotoxicity toward NIH3T3 fibroblasts, dose response, counter-screen, cell-based, ATP luminescence, mouse fibroblasts (AID 2010); type: functional;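 also: cells exposed to compound for about 90 hours before reading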
# Protein RecA = target: T6, Protein RecA (Mycobacterium tuberculosis, UniProt P9WHJ3); assay: Fluorescence Cell-Free Homogeneous Dose Retest to Identify Inhibitors of RecA-Intein Splicing Activity. [Related pubchem assays (depositor defined):AID2097, AID2223, AID489010, AID492950]; type: functional
# T6 sequence (P9WHJ3 whole entry): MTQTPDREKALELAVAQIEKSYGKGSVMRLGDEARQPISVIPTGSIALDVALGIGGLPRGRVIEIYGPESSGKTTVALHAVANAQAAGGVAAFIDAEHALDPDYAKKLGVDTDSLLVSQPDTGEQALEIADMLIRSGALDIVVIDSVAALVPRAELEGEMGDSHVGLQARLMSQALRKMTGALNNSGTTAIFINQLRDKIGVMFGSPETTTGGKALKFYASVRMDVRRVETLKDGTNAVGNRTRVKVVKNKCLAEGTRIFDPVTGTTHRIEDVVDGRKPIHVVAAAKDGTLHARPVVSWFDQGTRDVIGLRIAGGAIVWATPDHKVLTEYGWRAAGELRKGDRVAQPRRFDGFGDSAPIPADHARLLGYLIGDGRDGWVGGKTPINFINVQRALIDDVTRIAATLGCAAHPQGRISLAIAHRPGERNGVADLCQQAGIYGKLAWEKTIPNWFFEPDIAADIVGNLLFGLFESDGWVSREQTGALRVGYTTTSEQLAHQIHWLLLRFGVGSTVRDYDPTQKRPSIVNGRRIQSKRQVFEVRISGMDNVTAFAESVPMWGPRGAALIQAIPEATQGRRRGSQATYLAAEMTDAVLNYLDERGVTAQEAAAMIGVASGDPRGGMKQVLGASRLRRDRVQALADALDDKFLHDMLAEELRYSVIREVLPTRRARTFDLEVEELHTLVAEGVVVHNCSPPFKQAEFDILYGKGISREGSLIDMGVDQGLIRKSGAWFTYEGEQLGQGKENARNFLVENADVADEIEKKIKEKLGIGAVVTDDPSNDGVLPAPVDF
# [10] = target: Peroxisome proliferator-activated receptor gamma/Nuclear receptor coactivator 2 (Homo sapiens, UniProt P37231); assay: (§1) TR-FRET dose response biochemical High Throughput Screening assay for agonists of the steroid receptor coactivator 2 (SRC-2) recruitment by the peroxisome proliferator-activated receptor gamma (PPAR gamma): non-selective agonists. [Related pubchem assays: 1297, 1032 ]; type: functional
# [11] = target: Peroxisome proliferator-activated receptor gamma/Nuclear receptor coactivator 1 (Homo sapiens, UniProt P37231); assay: as §1, with “1 (SRC-1)” for “2 (SRC-2)”, “assays (depositor defined):AID1300, AID1808, AID504735, AID631]” for “assays: 1297, 1032 ]”; type: protein assay
# [12] = target: Peroxisome proliferator-activated receptor gamma/Nuclear receptor coactivator 3 (Homo sapiens, UniProt P37231); assay: as §1, with “3 (SRC-3)” for “2 (SRC-2)”, “1301 (Confirmation screen.), 1048 (Primary screen.)]” for “1297, 1032 ]”; type: functional
# Vero = assay: cells; type: functional; conditions: Chlorocebus sabaeus
# [13] = intracellular Trypanosoma cruzi inhibitors in host cells – cell-based, plate reader, cherry-pick samples, set 3, dose response (AID 651818); type: functional;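 also: compounds incubated with infected cells for about four days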
# [14] = P. falciparum Dd2 growth inhibitors, dose response, SYBR Green, cherry-picked samples (AID 1159567); type: functional, cell-based
# Peroxisome proliferator-activated receptor gamma/Nuclear receptor coactivator 3, sequence (P37231 whole entry): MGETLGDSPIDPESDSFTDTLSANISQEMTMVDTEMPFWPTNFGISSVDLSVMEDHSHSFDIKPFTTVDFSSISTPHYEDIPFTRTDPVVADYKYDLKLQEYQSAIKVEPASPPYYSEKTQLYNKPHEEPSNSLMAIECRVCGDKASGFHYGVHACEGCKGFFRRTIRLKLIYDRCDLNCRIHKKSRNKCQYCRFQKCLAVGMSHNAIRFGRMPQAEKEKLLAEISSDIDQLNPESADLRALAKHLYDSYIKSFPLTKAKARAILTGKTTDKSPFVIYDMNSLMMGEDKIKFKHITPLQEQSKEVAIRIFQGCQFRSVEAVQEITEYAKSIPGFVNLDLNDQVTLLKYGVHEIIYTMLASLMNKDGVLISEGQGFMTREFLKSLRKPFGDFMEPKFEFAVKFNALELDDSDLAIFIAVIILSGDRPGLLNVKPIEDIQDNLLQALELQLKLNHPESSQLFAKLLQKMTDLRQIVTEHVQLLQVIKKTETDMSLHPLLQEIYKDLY
# Peroxisome proliferator-activated receptor gamma/Nuclear receptor coactivator 3, sequence (Q9Y6Q9 whole entry, further chain): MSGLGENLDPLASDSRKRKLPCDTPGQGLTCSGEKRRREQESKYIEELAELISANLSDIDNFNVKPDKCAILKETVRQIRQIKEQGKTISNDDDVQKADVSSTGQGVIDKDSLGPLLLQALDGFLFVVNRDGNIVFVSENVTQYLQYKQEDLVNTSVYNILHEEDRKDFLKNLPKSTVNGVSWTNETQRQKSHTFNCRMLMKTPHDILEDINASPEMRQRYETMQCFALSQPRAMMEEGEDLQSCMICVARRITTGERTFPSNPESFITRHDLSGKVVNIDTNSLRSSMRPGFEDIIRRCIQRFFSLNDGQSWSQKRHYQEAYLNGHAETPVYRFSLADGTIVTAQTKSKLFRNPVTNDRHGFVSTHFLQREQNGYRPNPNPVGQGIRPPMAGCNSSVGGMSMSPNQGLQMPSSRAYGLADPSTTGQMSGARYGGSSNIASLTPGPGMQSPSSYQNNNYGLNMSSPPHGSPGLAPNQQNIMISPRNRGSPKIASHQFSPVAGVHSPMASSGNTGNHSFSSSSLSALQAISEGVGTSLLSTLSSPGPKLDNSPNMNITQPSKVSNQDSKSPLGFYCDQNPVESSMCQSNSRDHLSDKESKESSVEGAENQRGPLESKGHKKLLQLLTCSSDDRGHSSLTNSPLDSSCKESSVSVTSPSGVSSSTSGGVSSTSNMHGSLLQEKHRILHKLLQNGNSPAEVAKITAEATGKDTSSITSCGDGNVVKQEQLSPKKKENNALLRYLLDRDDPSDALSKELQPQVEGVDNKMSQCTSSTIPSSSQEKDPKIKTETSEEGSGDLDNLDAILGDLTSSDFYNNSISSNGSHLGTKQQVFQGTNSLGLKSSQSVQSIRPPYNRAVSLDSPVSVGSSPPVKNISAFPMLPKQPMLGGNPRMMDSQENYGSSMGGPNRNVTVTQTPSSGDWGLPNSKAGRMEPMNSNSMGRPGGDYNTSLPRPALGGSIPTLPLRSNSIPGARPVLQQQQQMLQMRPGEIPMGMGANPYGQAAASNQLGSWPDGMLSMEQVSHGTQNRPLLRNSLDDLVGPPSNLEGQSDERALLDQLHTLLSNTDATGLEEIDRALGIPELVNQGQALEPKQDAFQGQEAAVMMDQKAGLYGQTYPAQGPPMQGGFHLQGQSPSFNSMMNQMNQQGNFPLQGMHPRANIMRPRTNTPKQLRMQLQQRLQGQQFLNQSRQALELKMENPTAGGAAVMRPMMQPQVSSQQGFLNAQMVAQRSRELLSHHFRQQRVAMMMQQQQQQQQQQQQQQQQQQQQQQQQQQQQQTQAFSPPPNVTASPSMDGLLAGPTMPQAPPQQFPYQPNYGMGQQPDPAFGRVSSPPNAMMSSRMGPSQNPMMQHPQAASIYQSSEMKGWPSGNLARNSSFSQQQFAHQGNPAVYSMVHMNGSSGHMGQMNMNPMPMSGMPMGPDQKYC
# Peroxisome proliferator-activated receptor gamma/Nuclear receptor coactivator 1, sequence (P37231 whole entry): as the sequence (P37231 whole entry) above
# Peroxisome proliferator-activated receptor gamma/Nuclear receptor coactivator 1, sequence (Q15788 whole entry, further chain): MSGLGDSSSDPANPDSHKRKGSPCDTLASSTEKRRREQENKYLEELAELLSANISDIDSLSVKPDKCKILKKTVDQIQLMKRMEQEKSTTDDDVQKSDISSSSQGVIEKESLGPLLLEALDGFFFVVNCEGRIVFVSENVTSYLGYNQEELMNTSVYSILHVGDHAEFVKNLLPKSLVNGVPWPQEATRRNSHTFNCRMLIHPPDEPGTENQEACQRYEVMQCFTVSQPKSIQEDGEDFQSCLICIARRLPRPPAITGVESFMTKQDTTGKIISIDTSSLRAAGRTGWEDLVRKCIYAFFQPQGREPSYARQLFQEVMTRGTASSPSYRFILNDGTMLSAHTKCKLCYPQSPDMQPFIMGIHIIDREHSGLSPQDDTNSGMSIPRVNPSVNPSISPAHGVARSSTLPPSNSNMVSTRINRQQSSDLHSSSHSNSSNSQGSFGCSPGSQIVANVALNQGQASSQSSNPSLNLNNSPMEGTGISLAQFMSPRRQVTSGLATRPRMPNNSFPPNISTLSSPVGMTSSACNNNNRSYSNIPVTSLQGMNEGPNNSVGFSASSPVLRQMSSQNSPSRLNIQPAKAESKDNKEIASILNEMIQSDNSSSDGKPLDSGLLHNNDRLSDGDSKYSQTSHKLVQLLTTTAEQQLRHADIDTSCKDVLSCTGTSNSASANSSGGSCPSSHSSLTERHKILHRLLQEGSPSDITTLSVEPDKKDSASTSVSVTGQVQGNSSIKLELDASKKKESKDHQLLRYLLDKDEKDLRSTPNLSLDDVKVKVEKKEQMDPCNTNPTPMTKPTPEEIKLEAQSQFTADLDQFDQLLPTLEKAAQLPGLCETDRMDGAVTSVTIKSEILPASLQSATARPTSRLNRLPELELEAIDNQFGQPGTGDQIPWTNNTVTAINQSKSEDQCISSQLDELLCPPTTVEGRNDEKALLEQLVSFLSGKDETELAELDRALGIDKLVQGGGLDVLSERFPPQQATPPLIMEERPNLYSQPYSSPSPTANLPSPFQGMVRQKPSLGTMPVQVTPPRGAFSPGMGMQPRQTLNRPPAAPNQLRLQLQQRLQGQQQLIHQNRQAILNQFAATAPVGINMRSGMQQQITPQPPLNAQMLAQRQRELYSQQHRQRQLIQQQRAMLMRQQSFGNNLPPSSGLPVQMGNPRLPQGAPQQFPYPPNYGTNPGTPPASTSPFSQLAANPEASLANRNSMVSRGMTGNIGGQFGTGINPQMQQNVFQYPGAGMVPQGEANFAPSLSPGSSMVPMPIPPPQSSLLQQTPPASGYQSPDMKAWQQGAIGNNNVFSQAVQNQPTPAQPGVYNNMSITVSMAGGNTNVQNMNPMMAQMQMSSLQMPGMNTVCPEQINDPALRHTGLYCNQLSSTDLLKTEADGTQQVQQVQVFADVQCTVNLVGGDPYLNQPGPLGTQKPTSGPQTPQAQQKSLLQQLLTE
smiles,measurement,setting,value
CN(C)CCCNc1nc(-c2ccccc2)nc2ccccc12,AC50,[1],28.8 µM (active)
Cc1cccc2cc3c(N)c(C(=O)N4CCc5ccccc54)sc3nc12,EC50,[2],> 99 µM (inactive)
same,EC50,[3],43.4 µM (inactive)
Cc1cccn2c(=O)c3cc(C#N)c(=O)n(CCCN4CCOCC4)c3nc12,AC50,[1],48.9 µM (active)
Cc1cc(/C=C2\C(=O)NC(=O)N(Cc3ccccc3)C2=O)c(C)n1C1CC1,EC50,[2],> 99 µM (inactive)
same,EC50,[3],23.4 µM (inactive)
same,EC50,[4],> 300 µM (not active)
same,EC50,[5],> 300 µM (not active)
COc1ccc(Nc2nc(N3CCCCC3)nc3ccccc23)c(OC)c1,CC50,[6],> 40 µM (active)
same,AC50,[7],280 µM (active)
same,EC50,[8],0.578 µM (active)
same,EC50,[9],> 60 µM (inconclusive)
same,AC50,[1],62.2 µM (active)
same,EC50,Protein RecA,114 µM (active)
N#Cc1cc2c(nc1SCc1ccccc1)CCCCC2,EC50,[10],12.7 µM (not active)
same,EC50,[11],> 8.82 µM (inactive)
same,EC50,[12],> 79.4 µM (not active)
COc1cccc(NC(=O)CSc2c3c(nc4ccccc24)CCCC3)c1,AC50,[7],35.9 µM (active)
same,EC50,[10],66.1 µM (not active)
same,EC50,[11],> 79.4 µM (inactive)
same,EC50,[12],> 79.4 µM (not active)
same,EC50,Protein RecA,3.36 µM (active)
COc1ccc(CNC(=O)C(C#N)c2nc3ccccc3nc2N2CCCC2)cc1 (stereo not given),EC50,[2],9.99 µM (active)
same,EC50,[3],14.5 µM (active)
COc1ccc(C(=O)CC(SCC(NC(C)=O)C(=O)O)c2ccc(Cl)cc2)cc1OC (stereo not given),CC50,Vero,22.4 µM (active)
CCn1c(=O)cc(SCC(=O)Nc2ccc(OC)c(OC)c2)c2ccccc21,EC50,[10],53.8 µM (not active)
same,EC50,[11],> 79.4 µM (inactive)
same,EC50,[12],> 79.4 µM (not active)
CN1CCc2[nH]c3ccc(C(=O)NN)cc3c2C1,AC50,[1],100 µM (inactive)
CSC1=NP(=S)(SC)N(C)c2nc3n(c21)CCC3 (stereo not given),EC50,[10],> 79.4 µM (not active)
same,EC50,[11],> 79.4 µM (inactive)
same,EC50,[12],> 79.4 µM (not active)
CN(C)c1ccc(C=C2C=Cc3ccccc32)cc1,EC50,[2],> 99 µM (inactive)
same,EC50,[3],20.7 µM (inactive)
COc1cc2cc(c1Cl)N(C)C(=O)CC(OC(=O)C(C)N(C)C(C)=O)C1(C)OC1C(C)C1CC(O)(NC(=O)O1)C(OC)C=CC=C(C)C2 (stereo not given),CC50,Vero,< 0.05 µM (active)
Cc1ccc(S(=O)(=O)Nc2ccc3c(c2)CC(=O)N([C@@H](C)CO)C[C@@H](C)[C@@H](CN(C)Cc2ccc(C(=O)Nc4ccccc4N)cc2)O3)cc1,AC50,[13],2.94 µM (active)
C[C@@H]1CN([C@H](C)CO)C(=O)c2cccc(NC(=O)Nc3cccc4ccccc34)c2O[C@@H]1CN(C)C(=O)Nc1ccc(F)cc1,AC50,[13],3.81 µM (active)
same,AC50,[14],3.76 µM (active)
Cc1ccc(S(=O)(=O)Nc2cccc3c2O[C@@H](CN(C)Cc2ccc(C(=O)Nc4ccccc4N)cc2)[C@@H](C)CN([C@H](C)CO)C3=O)cc1,AC50,[13],5.8 µM (active)
COc1ccc(S(=O)(=O)Nc2ccc3c(c2)CC(=O)N([C@@H](C)CO)C[C@H](C)[C@H](CN(C)Cc2ccc(Cl)c(Cl)c2)O3)cc1,AC50,[13],5.64 µM (active)
